Experimental data taken from PubChem BioAssay (NCI).
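Where inhibition never reached the appropriate level, the endpoint shown equals the highest concentration tested. Otherwise, values were interpolated linearly from a five-concentration, 48-hour dose response in 96-well plates. TGI is the concentration that stops growth completely.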

Columns and labels:
Assay in all cases: DTP human tumour cell line panel, 48 h
[1] = system: OVCAR-8 ovarian
[2] = system: IGROV1 ovarian
[3] = system: SF-295 CNS
[4] = system: UACC-62 melanoma
[5] = system: HCT-116 colon
[6] = system: K-562 leukemia
[7] = system: SNB-75 CNS
[8] = system: ACHN renal
[9] = system: A549 NSCLC
[10] = system: A498 renal

Compound	TGI [1] [µM]	TGI [2] [µM]	TGI [3] [µM]	TGI [4] [µM]	TGI [5] [µM]	TGI [6] [µM]	TGI [7] [µM]	TGI [8] [µM]	TGI [9] [µM]	TGI [10] [µM]
COC(=O)c1ccccc1CC1Cc2c(C)ccc(C)c2C1=O (stereo not given)	> 100	> 100	> 100	> 100	56	> 100	> 100	> 100	> 100	71
CC(=O)O[C@H]1[C@@H](N2CCOCC2)C[C@H]2[C@@H]3CC=C4C[C@@H](N5CCCC5)CC[C@]4(C)[C@H]3CC[C@@]21C	> 100	> 100	> 100	> 100	> 100	> 100	> 100	> 100	> 100	> 100
c1ccc(C(Oc2noc3ccccc23)c2ccccc2)cc1	> 100	> 100	> 100	> 100	> 100	> 100	37	> 100	> 100	> 100
